The assay has as its target PIK3CA (human) (UniProt P42336). The experiment in a line: Inhibition of PIK3CA Kinase Activity.

Where only a bound is given, the exact number is not on record here.

Sequence of PIK3CA (human) (P42336 whole entry, looked up): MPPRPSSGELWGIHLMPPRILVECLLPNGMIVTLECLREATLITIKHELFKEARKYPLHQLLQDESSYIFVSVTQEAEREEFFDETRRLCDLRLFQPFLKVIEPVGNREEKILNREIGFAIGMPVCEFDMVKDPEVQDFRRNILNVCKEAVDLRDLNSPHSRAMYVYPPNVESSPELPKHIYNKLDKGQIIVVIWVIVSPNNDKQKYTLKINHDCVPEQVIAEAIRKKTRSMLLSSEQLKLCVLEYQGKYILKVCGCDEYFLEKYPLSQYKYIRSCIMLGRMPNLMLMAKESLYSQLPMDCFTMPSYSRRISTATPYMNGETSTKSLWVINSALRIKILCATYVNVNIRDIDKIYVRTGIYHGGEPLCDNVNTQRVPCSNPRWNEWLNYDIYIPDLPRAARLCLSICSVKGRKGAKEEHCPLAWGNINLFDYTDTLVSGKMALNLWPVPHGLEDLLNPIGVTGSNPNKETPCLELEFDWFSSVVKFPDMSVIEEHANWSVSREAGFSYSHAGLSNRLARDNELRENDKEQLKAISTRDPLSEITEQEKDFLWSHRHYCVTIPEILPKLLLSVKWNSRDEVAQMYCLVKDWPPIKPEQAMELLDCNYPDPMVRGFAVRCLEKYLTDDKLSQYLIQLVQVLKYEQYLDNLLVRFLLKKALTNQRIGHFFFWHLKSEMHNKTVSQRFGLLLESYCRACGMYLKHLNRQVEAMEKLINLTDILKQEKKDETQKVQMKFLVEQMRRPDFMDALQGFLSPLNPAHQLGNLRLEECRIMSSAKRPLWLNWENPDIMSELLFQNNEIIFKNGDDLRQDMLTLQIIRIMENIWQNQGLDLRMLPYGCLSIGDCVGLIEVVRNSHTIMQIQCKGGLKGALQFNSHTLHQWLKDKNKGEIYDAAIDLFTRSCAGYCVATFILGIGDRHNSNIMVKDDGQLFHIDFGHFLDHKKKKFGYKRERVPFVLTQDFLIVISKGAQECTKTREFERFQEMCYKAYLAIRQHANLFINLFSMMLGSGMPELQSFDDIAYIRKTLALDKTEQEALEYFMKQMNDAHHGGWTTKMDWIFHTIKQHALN

The molecule `CSc1nc2c(c(N3CCOc4ccc(-c5ccc6nc(C)[nH]c6c5)cc4C3)n1)CCC2` registered an IC50 of 250 to 1000 nM. `CCNc1nc2ccc(-c3ccc4c(c3)CN(c3ccncn3)CCO4)cc2[nH]1` came in with an IC50 of 250 to 1000 nM. `Cc1nc2ccc(-c3ccc4c(c3)CN(c3nc(CNCCF)nc5c3CC(C)(C)CC5)CCO4)cc2[nH]1` came in with an IC50 of no more than 10 nM. With `CCNc1nc(C)nc(N2CCOc3ccc(-c4cnc5nc(C)[nH]c5c4)cc3C2)c1C` the figure was 10 to 50 nM; with `Cc1nc2ccc(-c3ccc4c(c3)CN(c3nc(C(C)(C)O)nc5c3CC(C)(C)CC5)CCO4)cc2[nH]1`, 50 to 250 nM. With `CC[C@H]1CCCc2c(ncnc2N2CCOc3ccc(-c4cnc5nc(C)[nH]c5c4)cc3C2)C1` the figure was 10 to 50 nM. Take `c1ccc2c(N3CCOc4ccc(-c5ccc6scnc6c5)cc4C3)ccnc2c1`: the IC50 was in the range of 250 to 1000 nM. Take `CC1(C)CCc2ncnc(N3CCOc4ccc(-c5cnc(F)c(NS(C)(=O)=O)c5)cc4C3)c2C1`: the IC50 was 50 to 250 nM. With `COc1ccc2c(N3CCOc4ccc(-c5cnc(N)nc5)cc4C3)nc(C)nc2c1` the figure was 50 to 250 nM; with `CCc1ncnc(N2CCOc3ccc(-c4cnc5nc(C)[nH]c5c4)cc3C2)c1C`, 50 to 250 nM.

In turn, `CCOc1ncc(-c2ccc3c(c2)CN(c2ncnc4c2CC(C)(C)CC4)CCO3)cc1NS(C)(=O)=O` returned an IC50 of 50 to 250 nM.

For the molecule `Cc1nc2ncc(-c3ccc4c(c3)CN(c3ncnc5c3CC(C)CC5)CCO4)cc2[nH]1` (centres undefined), the IC50 is 10 to 50 nM.

With `Cc1nc2cc(-c3ccc4c(c3)CN(c3nc([C@@H]5CCCN5)nc5c3CC(C)(C)CC5)CCO4)cnc2[nH]1`, the IC50 fell in the range of 10 to 50 nM. With `Cc1c(NCC2CCN(C)CC2)ncnc1N1CCOc2ccc(-c3cnc4nc(C5CC5)[nH]c4c3)cc2C1` the figure was 250 to 1000 nM; with `CC[C@H]1CCc2c(ncnc2N2CCOc3ccc(-c4cnc5nc(N)[nH]c5c4)cc3C2)C1`, no more than 10 nM; with `Cc1nc2ncc(-c3ccc4c(c3)CN(c3ncnc5c3CCCC5(C)C)CCO4)cc2[nH]1`, 50 to 250 nM. In turn, `CCN(C)Cc1nc2c(c(N3CCOc4ccc(-c5cnc6nc(C)[nH]c6c5)cc4C3)n1)CC(C)(C)CC2` gave an IC50 of no more than 10 nM. With `CCc1c(C)nc(CN(C)C)nc1N1CCOc2ccc(-c3ccc4[nH]c(C)nc4c3)cc2C1` the figure was 10 to 50 nM; with `COc1cc2ncnc(N3CCOc4ccc(-c5ccc6nc(C)[nH]c6c5)cc4C3)c2cc1OC`, 50 to 250 nM. To `Cc1nc2ccc(-c3ccc4c(c3)CN(c3nc(CN(C)C)nc(C)c3CC3CC3)CCO4)cc2[nH]1` belongs 10 to 50 nM; to `CCCNC(=O)c1ccc(-c2ccc3c(c2)CN(c2ccnc4ccccc24)CCO3)cc1`, 250 to 1000 nM; to `COc1ccc2c(N3CCOc4ccc(-c5cnc6nc(C)[nH]c6c5)cc4C3)nc(CN(C)C)nc2c1`, no more than 10 nM. With `COc1ccc2c(N3CCOc4ccc(-c5ccc6[nH]c(=O)[nH]c6c5)cc4C3)nc(C)nc2c1` the figure was 250 to 1000 nM; with `COc1ccc2c(N3CCOc4ccc(-c5cnc6[nH]c(C)nc6c5)cc4C3)nc(C)nc2c1`, no more than 10 nM; with `COc1ccc2c(N3CCOc4ccc(-c5ccc(OC)c(OC)c5)cc4C3)nc(CN(C)C)nc2c1`, 10 to 50 nM.

In the case of `c1ccc2c(N3CCOc4ccc(-c5ccc6nc(C7CC7)[nH]c6c5)cc4C3)ccnc2c1`, the IC50 fell in the range of 10 to 50 nM. In the case of `COc1ccc2c(N3CCOc4ccc(-c5ccc(-c6nc7ccccc7[nH]6)cc5)cc4C3)nc(C)nc2c1`, the IC50 fell in the range of 250 to 1000 nM. To `CC[C@H]1CCc2c(nc(C)nc2N2CCOc3ccc(-c4cnc5nc(NC(=O)OC)[nH]c5c4)cc3C2)C1` belongs no more than 10 nM; to `CC1(C)CCc2ncnc(N3CCOc4ccc(-c5cnc(Cl)c(OC(F)F)c5)cc4C3)c2C1`, 250 to 1000 nM; to `Cc1ncnc(N2CCOc3ccc(-c4ccc5[nH]nc(N)c5c4)cc3C2)c1Cc1ccc(F)cc1`, 50 to 250 nM.

`CCNCc1nc2c(c(N3CCOc4ccc(-c5cnc6nc(C)[nH]c6c5)cc4C3)n1)CC(C)(C)CC2` had an IC50 of no more than 10 nM. On to `CN(C)S(=O)(=O)c1cncc(-c2ccc3c(c2)CN(c2ncnc4c2CC(C)(C)CC4)CCO3)c1`, for which the IC50 lay within 50 to 250 nM. `CC1(C)CCc2ncnc(N3CCOc4ccc(-c5cnc(N)c(S(=O)(=O)NC6CC7CCC(C6)N7)c5)cc4C3)c2C1` (centres undefined) came in with an IC50 of 50 to 250 nM. As for `Cc1ncnc(N2CCOc3ccc(-c4ccc(C(=O)NC5CC5)cc4)cc3C2)c1Cc1ccc(F)cc1`, the IC50 lay within 250 to 1000 nM. The molecule `Cc1nc2ncc(-c3ccc4c(c3)CN(c3nc(CNC(C)C5CC5)nc5c3CC(C)(C)CC5)CCO4)cc2[nH]1` (centres undefined) yielded an IC50 of 10 to 50 nM. With `CC1(C)CCc2ncnc(N3CCOc4ccc(-c5cnc(N)c(S(=O)(=O)N6CCCC6)c5)cc4C3)c2C1` the figure was 50 to 250 nM; with `Cc1ncnc(N2CCOc3ccc(-c4cc5[nH]c(N)nc5cn4)cc3C2)c1Cc1ccc(F)cc1`, 50 to 250 nM. As for `CC1(C)CCc2ncnc(N3CCOc4ccc(-c5cnc(N)c(S(=O)(=O)N6CCC(N)C6)c5)cc4C3)c2C1` (centres undefined), the IC50 fell in the range of 10 to 50 nM. To `Cc1nc2ncc(-c3ccc4c(c3)CN(c3nc(CN(C)C)nc5ccc(F)cc35)CCO4)cc2[nH]1` belongs 10 to 50 nM; to `Cc1nc2ncc(-c3ccc4c(c3)CN(c3ncnc5c3CCC(C(C)O)C5)CCO4)cc2[nH]1` (centres undefined), 10 to 50 nM; to `COc1ccc2c(N3CCOc4ccc(-c5cnc(N)c(S(=O)(=O)N6CC[C@H](N)C6)c5)cc4C3)ncnc2c1`, no more than 10 nM. With `CC1(C)CCc2ncnc(N3CCOc4ccc(-c5cnc(N)c(S(=O)(=O)N6CC[C@H](N)C6)c5)cc4C3)c2C1`, the IC50 lay within 10 to 50 nM. In the case of `C[C@@H](CO)CS(=O)(=O)c1cc(-c2ccc3c(c2)CN(c2ncnc4c2CC(C)(C)CC4)CCO3)cnc1N`, the IC50 was no more than 10 nM.

The molecule `Cc1nc2ncc(-c3ccc4c(c3)CN(c3ncnc(C)c3C(C)C)CCO4)cc2[nH]1` yielded an IC50 of 10 to 50 nM. With `CC(O)CNS(=O)(=O)c1cc(-c2ccc3c(c2)CN(c2ncnc4c2CC(C)(C)CC4)CCO3)cnc1N` (centres undefined) the figure was 10 to 50 nM; with `COCC1CCc2c(ncnc2N2CCOc3ccc(-c4cnc5nc(C)[nH]c5c4)cc3C2)C1` (centres undefined), 10 to 50 nM.

In turn, `Cc1ncnc(N2CCOc3ccc(-c4ccc5nc(N)[nH]c5c4)cc3C2)c1Cc1ccc(F)cc1` gave an IC50 of 10 to 50 nM. As for `COc1ccc2c(N3CCOc4ccc(-c5ccc(N)cc5)cc4C3)nc(C)nc2c1`, the IC50 is 250 to 1000 nM. In the case of `CCNc1nc2ccc(-c3ccc4c(c3)CN(c3nc(C)nc(Nc5ccccc5)c3C)CCO4)cc2[nH]1`, the IC50 lay in the range of 50 to 250 nM.

As for `COc1ccc2c(N3CCOc4ccc(-c5cnc6nc(N)[nH]c6c5)cc4C3)nc(C)nc2c1`, the IC50 is no more than 10 nM. With `COC(=O)Nc1nc2ncc(-c3ccc4c(c3)CN(c3ccnc5cc(OC)c(OC)cc35)CCO4)cc2[nH]1` the figure was 10 to 50 nM.

The molecule `Cc1nc2ccc(-c3ccc4c(c3)CN(c3ccnc5ccccc35)CCO4)cc2[nH]1` returned an IC50 of 10 to 50 nM.

`CC1(C)CCc2ncnc(N3CCOc4ccc(-c5cnc6c(c5)S(=O)(=O)NC(=O)N6)cc4C3)c2C1` yielded an IC50 of 50 to 250 nM. With `CC(C)(O)CCS(=O)(=O)c1cc(-c2ccc3c(c2)CN(c2ncnc4c2CC(C)(C)CC4)CCO3)cnc1N` the figure was 10 to 50 nM; with `CC1(C)CCc2ncnc(N3CCOc4ccc(-c5cnc(N)c(S(=O)(=O)N6CC[C@@H](N)C6)c5)cc4C3)c2C1`, 10 to 50 nM; with `Cc1nc2ccc(-c3ccc4c(c3)CN(c3ccnc5cc(C#N)ccc35)CCO4)cc2[nH]1`, 50 to 250 nM. On to `COc1ccc(-c2ccc3c(c2)CN(c2nc(CN(C)C)nc4c2CC(C)(C)CC4)CCO3)cn1`, for which the IC50 lay in the range of 50 to 250 nM.

In turn, `Cc1nc2ccc(-c3ccc4c(c3)CN(c3ncnc(C)c3C(C)c3ccccc3)CCO4)cc2[nH]1` (centres undefined) came in with an IC50 of 10 to 50 nM. Regarding `CCNc1nc2ccc(-c3ccc4c(c3)CN(c3ccnc5cc(OC)ccc35)CCO4)cc2[nH]1`, the IC50 is no more than 10 nM. With `Cc1ncnc(N2CCOc3ccc(-c4ccn5nc(N)nc5c4)cc3C2)c1Cc1ccc(F)cc1` the figure was 10 to 50 nM; with `Cc1nc2ncc(-c3ccc4c(c3)CN(c3nc(CNC5CCC5)nc5c3CC(C)(C)CC5)CCO4)cc2[nH]1`, 10 to 50 nM. As for `CNC(=O)c1ccc(-c2ccc3c(c2)CN(c2ncnc(C)c2Cc2ccc(F)cc2)CCO3)nc1`, the IC50 was in the range of 250 to 1000 nM. For the molecule `COc1ccc2c(N3CCOc4ccc(-c5cnc6sc(N)nc6c5)cc4C3)nc(CN(C)C)nc2c1`, the half-inhibitory concentration (IC50) was no more than 10 nM. With `COCCOCc1nc2c(c(N3CCOc4ccc(-c5ccc6nc(C)[nH]c6c5)cc4C3)n1)CC(C)(C)CC2`, the IC50 fell in the range of 50 to 250 nM.

`Cc1nc2ccc(-c3ccc4c(c3)CN(c3ncnc(C)c3C)CCO4)cc2[nH]1`: the IC50 lay within 50 to 250 nM. With `CC1(C)CCc2ncnc(N3CCOc4ccc(-c5cnc(N)c(S(=O)(=O)N6C7CCC6CC(N)C7)c5)cc4C3)c2C1` (centres undefined) the figure was 10 to 50 nM. To `CCNc1nc2ccc(-c3ccc4c(c3)CN(c3cc(C)nc5cc(OC)ccc35)CCO4)cc2[nH]1` belongs no more than 10 nM. To `Cc1cccc(Cc2c(C)ncnc2N2CCOc3ccc(-c4ccc5nc(C)[nH]c5c4)cc3C2)c1` belongs 50 to 250 nM; to `CC1(C)CCc2ncnc(N3CCOc4ccc(-c5cnc(Cl)c(NS(C)(=O)=O)c5)cc4C3)c2C1`, no more than 10 nM. For `CCNc1nc2ccc(-c3ccc4c(c3)CN(c3ncnc(Nc5ccccc5)c3C)CCO4)cc2[nH]1`, the IC50 lay in the range of 10 to 50 nM. To `Cc1nc2ncc(-c3ccc4c(c3)CN(c3nc(CN)nc5c3CC(C)(C)CC5)CCO4)cc2[nH]1` belongs no more than 10 nM; to `Cc1ncnc(N2CCOc3ccc(-c4cnc5sc(N)nc5c4)cc3C2)c1Cc1ccc(F)cc1`, no more than 10 nM. With `CCc1nc(CN(C)C)nc(N2CCOc3ccc(-c4cnc5[nH]c(C)nc5c4)cc3C2)c1C` the figure was 10 to 50 nM; with `CCc1nc(CN(C)C)nc(N2CCOc3ccc(-c4ccc5[nH]c(C)nc5c4)cc3C2)c1C`, 10 to 50 nM. Molecule `Cc1nc(CNCCF)nc(N2CCOc3ccc(-c4cnc5sc(N)nc5c4)cc3C2)c1C(C)C` registered an IC50 of no more than 10 nM. With `Cc1nc2ccc(-c3ccc4c(c3)CN(c3cc(C(C)C)ncn3)CCO4)cc2[nH]1` the figure was 250 to 1000 nM; with `CC(C)(N)CNS(=O)(=O)c1cc(-c2ccc3c(c2)CN(c2ncnc4c2CC(C)(C)CC4)CCO3)cnc1N`, 50 to 250 nM.

For `Cc1nc(CN(C)C)nc(N2CCOc3ccc(-c4cnc5sc(N)nc5c4)cc3C2)c1Cl`, the IC50 lay within 10 to 50 nM. With `Cc1nc2ccc(-c3ccc4c(c3)CN(c3ncnc5cc(F)ccc35)CCO4)cc2[nH]1` the figure was 10 to 50 nM.

(Values after the Kinase Knowledgebase extract (Sharma et al. 2016).)
